Structures are written as SMILES. Active and inactive are the calls of the source. The rule behind the calls is not given here.

Data on 17 compounds can be found in ChEMBL document CHEMBL1128955, “Benzolactam growth hormone secretagogues: Replacement of the C-3 amide bond in L-692,429” (1996).

For the first test, the species on record is Rattus norvegicus. The experiment in a line: In vitro growth hormone release in rat pituitary cells at 10 uM; inactive. The class given is functional, cell-based. The settings on record: Pituitary gland cell.
With `CC(C)(N)CC(=O)N(Cc1ccccc1)[C@@H]1CCc2ccccc2N(Cc2ccc(-c3ccccc3-c3nn[nH]n3)cc2)C1=O`, the ED50 entry is “inactive”.

Another test is filed under the species Rattus norvegicus. The experiment in a line: In vitro growth hormone release in rat pituitary cells. The format is functional. The settings on record: Pituitary gland cell, read-out: ED50 (the source's name).
As to `CN(C(=O)CC(C)(C)N)[C@@H]1CCc2ccccc2N(Cc2ccc(-c3ccccc3-c3nn[nH]n3)cc2)C1=O`, the EC50 came to 7 µM.

`CC(C)(N)CC(=O)N[C@@H]1CCc2ccccc2N(Cc2ccc(-c3ccccc3-c3nn[nH]n3)cc2)C1=O`: the EC50 came out at 0.06 µM. The same measure, in the same setting: in the case of `C[C@H](O)CNC(C)(C)CC(=O)N[C@@H]1CCc2ccccc2N(Cc2ccc(-c3ccccc3-c3nn[nH]n3)cc2)C1=O` it was 0.007 µM; in that of `CC(C)(N)CCC(=O)N[C@@H]1CCc2ccccc2N(Cc2ccc(-c3ccccc3-c3nn[nH]n3)cc2)C1=O`, 3 µM; in that of `CC(C)(N)CC(=O)NC1CCc2ccccc2N(Cc2ccc(-c3ccccc3-c3nn[nH]n3)cc2)C1=O` [L-158432], 0.12 µM. The same measure, in the same setting: in the case of `C[C@H](O)CNC(C)(C)CNC(=O)N[C@@H]1CCc2ccccc2N(Cc2ccc(-c3ccccc3-c3nn[nH]n3)cc2)C1=O` it was 2.5 µM; in that of `CC(C)(N)CCSC1CCc2ccccc2N(Cc2ccc(-c3ccccc3-c3nn[nH]n3)cc2)C1=O` (configuration not stated), 6 µM. The same measure, in the same setting: in the case of `CC(C)(N)CCCSC1CCc2ccccc2N(Cc2ccc(-c3ccccc3-c3nn[nH]n3)cc2)C1=O` (configuration not stated) it was 7 µM. For `C[C@@H](O)CNC(C)(C)CC(=O)N[C@@H]1CCc2ccccc2N(Cc2ccc(-c3ccccc3-c3nn[nH]n3)cc2)C1=O` [L-692585], the EC50 worked out at 0.003 µM. Still for that read-out and setting: next, `CC(C)(N)CNC(=O)N[C@@H]1CCc2ccccc2N(Cc2ccc(-c3ccccc3-c3nn[nH]n3)cc2)C1=O`: 0.1 µM. As to `CC(C)(N)C(=O)N[C@@H]1CCc2ccccc2N(Cc2ccc(-c3ccccc3-c3nn[nH]n3)cc2)C1=O`, the EC50 was found to be 0.03 µM. On the same count and under the same terms, in the case of `CC(C)(N)CNC1CCc2ccccc2N(Cc2ccc(-c3ccccc3-c3nn[nH]n3)cc2)C1=O` (configuration not stated) it was 1 µM.

For a further test, the species on record is Rattus norvegicus. The experiment in a line: In vitro growth hormone release in rat pituitary cells at 1 uM; Weakly active. The class given is functional, cell-based. The settings on record: Pituitary gland cell.
In the case of `CC(C)(N)CC(=O)OC1CCc2ccccc2N(Cc2ccc(-c3ccccc3-c3nn[nH]n3)cc2)C1=O` (configuration not stated), the “Growth hormone release at 1 uM (qualitative)” value was “Weak activity”. Still for that read-out and setting: in the case of `C[C@@H](O)CNC(C)(C)CNC(=O)N[C@@H]1CCc2ccccc2N(Cc2ccc(-c3ccccc3-c3nn[nH]n3)cc2)C1=O` it was “Weak activity”. On the same count and under the same terms, next, `CC(C)(N)CCNC1CCc2ccccc2N(Cc2ccc(-c3ccccc3-c3nn[nH]n3)cc2)C1=O` (configuration not stated): “Weak activity”; `CC(C)(N)NC(=O)N[C@@H]1CCc2ccccc2N(Cc2ccc(-c3ccccc3-c3nn[nH]n3)cc2)C1=O`: “Weak activity”.
